1 compound from US5679787A, “Process for isomerization of compound of aldose structure into compound of ketose structure, and isomerization agent or accelerator used therein” (priority 1992, dated 1997) can be followed below.

Data set [1] in a line: Isomerization without enzyme (Example 3), xylose. As to conditions: remark (2): reaction time 6 h, initial pH 10.0-10.6. As for the experimental part: [The procedure below names another target; the source says it served here with some conditions changed.] (§1) 200 μl of the 14% or 28% glucose solution and 200 μl of the organogermanium compound solution (pH 8.00 or 8.53) were placed in a small test tube. Also, 200 μl of the 14% or 28% glucose solution and 200 μl of the weakly alkaline electrolytic water were placed in a small test tube. Each test tube was thoroughly shaken and then placed in a water bath of 80° C. to give rise to a reaction. 1-3 hours later, 50 μl of the reaction mixture was added to 50 μl of 0.5N HClO4 to terminate the reaction. Thereafter, the mixture was diluted 100-fold with deionized water to determine the amount of formed fructose and the amount of residual glucose by high-performance liquid chromatography using 7A (a column) manufactured by Shimadzu Corp.
Other compounds represented by formula (I) were subjected to 3-hour isomerization in the same manner as in Example 2.

Data set [2] in a line: Isomerization without enzyme (Example 3), glucose. As to conditions: remark (1): initial pH 8.0-8.53. How it is done: as §1, with “1-3 hours later, 50 μl of the reaction mixture was added to 50 μl of 0.5N HClO4 to terminate the reaction.” left out, “Corp. […]” for “Corp.”
Data set [3] in a line: Isomerization test at pH 10 (Example 4), galactose. As to conditions: pH 10 with aqueous sodium hydroxide, 80° C., 3 hours; blank 7.60. As for the experimental part:
(§2) The same isomerization test as in Example 2 was conducted with slight modifications.
(§3) That is, 200 μl of one of various saccharide solutions and 200 μl of one of various organogermanium compound solutions were placed in a small test tube. The mixture was adjusted to pH 10 with an aqueous sodium hydroxide solution, after which the tube was placed in a water bath of 80° C. for a reaction. 3 hours later, the reaction was terminated and the amount of each saccharide isomerized was determined by high-performance liquid chromatography using 7A (a column) manufactured by Shimadzu Corp.

Data set [4] can be described thus: Isomerization without enzyme (Example 3), lactose. As to conditions: remark (3): reaction time 6 h, initial pH 10.0-11.0.
The nature of data set [5]: Isomerization without enzyme (Example 3), mannose. As to conditions: remark (2): reaction time 6 h, initial pH 10.0-10.6.
The nature of data set [6]: Toxicity, LD50 on oral administration to rats. As to conditions: rat, in vivo, orally administered to rats. The text has this:
(§4) The organogermanium compound used in the present invention has very low toxicity.

The nature of data set [7]: Isomerization without enzyme (Example 3), arabinose. As to conditions: remark (2):, initial pH 10.0-10.6.
A short description of data set [8]: Isomerization without enzyme (Example 3), ribose. As to conditions: NaOH; remark (2): reaction time 6 h, initial pH 10.0-10.6; blank 3.9-19.5%.
Data set [9] is described as follows: Toxicity, LD50 on oral administration to mice. As to conditions: mouse, in vivo, orally administered to mice.
Excerpt: as §4

A short description of data set [10]: Isomerization test at pH 10 (Example 4), ribose. As to conditions: pH 10 with aqueous sodium hydroxide, 80° C., 3 hours; blank 2.89. How it is done:
as §2, §3

A further data set concerns glucose isomerase. Kind of data set: Enzymatic isomerization of glucose into fructose in presence of organogermanium compound (Example 1). Type of data set: biochemical, Streptomyces griseofuscus S-41. As to conditions: 60° C., pH 8.0, substrate solution 40% glucose and 1.2M organogermanium compound, blank 50%. As for the experimental part: A solution containing 40% glucose and 1.2M organogermanium compound was prepared according to the following procedure. 0.8 g of anhydrous glucose was dissolved in 0.8 ml of deionized water. To the solution was added, in small portions, 0.407 g of the organogermanium compound (1) as an isomerization accelerator of the present invention [a compound represented by formula (II) wherein n=1, R1 =R2 =R3 and X1 =OH] while the pH of the solution was maintained at very weak alkalinity, to completely dissolve the compound in the solution. Thereto was added 4.9 mg of magnesium sulfate, and the pH of the resulting mixture was adjusted to 8.0. Then, deionized water was added to make the total volume 2.0 ml, whereby a substrate solution was prepared.
Two other substrate solutions containing the organogermanium compounds (18) [a compound represented by formula (II) wherein n=1, R1 =R2 =H, R3 =NH2 and X1 =OH] and (23) [a compound represented by formula (II) wherein n=1, R1 =H, R2 =C6 H5, R3 =NH2 and X1 =OH], respectively, were prepared in the same manner as above except that the organogermanium compounds (18) and (23) were used in amounts of 0.443 g and 0.638 g, respectively (these amounts corresponded to 1.2M of germanium).
An isomerization enzyme (glucose isomerase) extracted from the cells of Streptomyces griseofuscus S-41 was purified according to a known method using an ion exchange column, a gel filtration column or the like, until a single band was obtained electrophoretically. The resulting purified enzyme was used as a standard enzyme.
In a small test tube were placed 0.7 ml of the above substrate solution, 0.1 ml of a 200 mM MOPS buffer solution (pH 8.0) and 0.2 ml of a solution containing the above-prepared standard enzyme (5.69 mg/ml). […] The amount of formed fructose in the microvial was determined by high-performance liquid chromatography using a column [LC7A, SCR-101 (N) manufactured by Shimadzu Corp.] to examine the change with time, of ratio of isomerization of glucose into fructose.

Data set [11] in a line: Isomerization test at pH 10 (Example 4), xylose. As to conditions: pH 10 with aqueous sodium hydroxide, 80° C., 3 hours; blank 5.59. As for the experimental part: as §2, §3
Data set [12] in a line: Isomerization test at pH 10 (Example 4), mannose. As to conditions: pH 10 with aqueous sodium hydroxide, 80° C., 3 hours; blank 12.48. As for the experimental part:
as §2, §3

Data set [13] in a line: Isomerization without enzyme (Example 3), maltose. As to conditions: remark (3): reaction time 6 h, initial pH 10.0-11.0.
The nature of data set [14]: Isomerization test at pH 10 (Example 4), maltose. As to conditions: pH 10 with aqueous sodium hydroxide, 80° C., 3 hours; blank 12.59. As for the experimental part: as §2, §3
The nature of data set [15]: Isomerization test at pH 10 (Example 4), arabinose. As to conditions: pH 10 with aqueous sodium hydroxide, 80° C., 3 hours; blank 2.75. As for the experimental part: as §2, §3
Where [16] appears, read: electrolytic water, blank 0.4-1.2%.
The mark [17] stands for this setting: electrolytic water, blank 0-0.4%.

Usually LD50 stands for the dose expected to kill half of the subjects tested. Low values mean a more toxic substance, high ones a less toxic substance. Take `O=C(O)C[CH2][Ge](=[O])[O][Ge](=[O])[CH2]CC(=O)O` [Compound 1]: in data set [1] (NaOH, blank 3.9-19.5%), the “Isomerization ratio Xylose NaOH” value worked out at 30.3%. The “Isomerization ratio Xylose Electrolytic water” value in [1] (setting [16]) is recorded as 19.6%. Besides, in data set [2] (NaOH, blank 32.3%), the “Isomerization ratio Glucose NaOH” value is on record as 98.9%. Further, the “Isomerization ratio Glucose Electrolytic water” value in data set [2] (electrolytic water, blank 2.1-3.1%) came out at 94.7%. The “Isomerization (%) Galactose” value in [3] was 38.67%. For the same compound, in data set [4] (NaOH, blank 34.0-38.6%), the “Isomerization ratio Lactose NaOH” value was determined as 70.3%. Besides, the “Isomerization ratio Lactose Electrolytic water” value in data set [4] (setting [17]) stood at 58.3%. In addition, the “Isomerization ratio Mannose NaOH” value in data set [5] (NaOH, blank 3.9-19.5%) is recorded as 24.3%. In addition, the “Isomerization ratio Mannose Electrolytic water” value in data set [5] (setting [16]) is recorded as 13.1%. Besides, the 50% lethal dose (LD50) in [6] is no less than 10000 mg/kg; in [9], no less than 6000 mg/kg. Further, the “Isomerization ratio Arabinose NaOH” value in data set [7] (NaOH, blank 3.9-19.5%) was determined as 22.6%. For the same compound, the “Isomerization ratio Arabinose Electrolytic water” value in data set [7] (setting [16]) came out at 12.6%. The “Isomerization ratio Ribose NaOH” value in [8] stood at 44.7%. Besides, the “Isomerization (%) Ribose” value in data set [10] is 27.76%. Besides, the “isomerization ratio in equilibrium” value in the data set on glucose isomerase is listed as 75%. For the same compound, in data set [11], the “Isomerization (%) Xylose” value was determined as 40.66%. Besides, in data set [12], the “Isomerization (%) Mannose” value came to 37.23%. Also, the “Isomerization ratio Maltose NaOH” value in [13] (NaOH, blank 34.0-38.6%) came out at 68.7%. For the same compound, the “Isomerization ratio Maltose Electrolytic water” value in data set [13] (setting [17]) stood at 43.2%. The “Isomerization (%) Maltose” value in data set [14] worked out at 78.91%. The “Isomerization (%) Arabinose” value in data set [15] is 20.87%.
